Experimental data as given in paper PMC4492758 (Pharmacology Research & Perspectives, 2015).
“And” between values parts separate entries of the source, which are not always exact repeats. Identical values can stand only once. “Also recorded” adds a separate entry of the source. Counter-ions that a name gives are not always drawn. Like-named read-outs stand apart in the source and are kept apart here. Marks after values point to notes of the source that are not given here.

What was measured:
[1] = target: rat serotonin transporter (Rattus norvegicus, UniProt P31652); assay: Rat SERT binding, [3H]citalopram, rat cerebral cortex membranes
Human adrenergic α1A = Human adrenergic α1A (Homo sapiens, UniProt P35348); assay: Off-target radioligand binding assay
Human adrenergic α1B = Human adrenergic α1B (Homo sapiens, UniProt P35368); assay: Off-target radioligand binding assay; settings: read-out: Percentage inhibition at 1 μmol/L
Human adrenergic α2A = Human adrenergic α2A (Homo sapiens, UniProt P08913); assay: Off-target radioligand binding assay; settings: read-out: Percentage inhibition at 1 μmol/L
Human adrenergic α2B = Human adrenergic α2B (Homo sapiens, UniProt P18089); assay: Off-target radioligand binding assay; settings: read-out: Percentage inhibition at 1 μmol/L
Human adrenergic α2C = Human adrenergic α2C (Homo sapiens, UniProt P18825); assay: Off-target radioligand binding assay; settings: read-out: Percentage inhibition at 1 μmol/L
Human adrenergic β1 = Human adrenergic β1 (Homo sapiens, UniProt P08588); assay: Off-target radioligand binding assay; settings: read-out: Percentage inhibition at 1 μmol/L
Human adrenergic β2 = Human adrenergic β2 (Homo sapiens, UniProt P07550); assay: Off-target radioligand binding assay; settings: read-out: Percentage inhibition at 1 μmol/L
Human adrenergic β3 = Human adrenergic β3 (Homo sapiens, UniProt P13945); assay: Off-target radioligand binding assay; settings: read-out: Percentage inhibition at 1 μmol/L
Human dopamine D1 = Human dopamine D1 (Homo sapiens, UniProt P21728); assay: Off-target radioligand binding assay; settings: read-out: Percentage inhibition at 1 μmol/L
Human dopamine D2L = Human dopamine D2L (Homo sapiens, UniProt P14416); assay: Off-target radioligand binding assay; settings: read-out: Percentage inhibition at 1 μmol/L
Human dopamine D3 = Human dopamine D3 (Homo sapiens, UniProt P35462); assay: Off-target radioligand binding assay
Rat GABAA = assay: Off-target radioligand binding assay; settings: [3H] Flunitrazepam 0.88 nmol/L
Human histamine H1 = Human histamine H1 (Homo sapiens, UniProt P35367); assay: Off-target radioligand binding assay
Human histamine H2 = Human histamine H2 (Homo sapiens, UniProt P25021); assay: Off-target radioligand binding assay; settings: read-out: Percentage inhibition at 1 μmol/L
Human musucarinic M1 = Human musucarinic M1 (Homo sapiens, UniProt P11229); assay: Off-target radioligand binding assay; settings: read-out: Percentage inhibition at 1 μmol/L
Human musucarinic M2 = Human musucarinic M2 (Homo sapiens, UniProt P08172); assay: Off-target radioligand binding assay; settings: read-out: Percentage inhibition at 1 μmol/L
Human opiate δ = Human opiate δ (Homo sapiens, UniProt P41143); assay: Off-target radioligand binding assay; settings: read-out: Percentage inhibition at 1 μmol/L
Human opiate κ = Human opiate κ (Homo sapiens, UniProt P41145); assay: Off-target radioligand binding assay; settings: read-out: Percentage inhibition at 1 μmol/L
Human opiate μ = Human opiate μ (Homo sapiens, UniProt P35372); assay: Off-target radioligand binding assay; settings: read-out: Percentage inhibition at 1 μmol/L
[2] = target: guinea pig serotonin 5-HT4 (Cavia porcellus, UniProt O70528); assay: Off-target radioligand binding assay; settings: read-out: Percentage inhibition at 1 μmol/L
Human serotonin 5-HT1B = Human serotonin 5-HT1B (Homo sapiens, UniProt P28222); assay: Off-target radioligand binding assay; settings: read-out: Percentage inhibition at 1 μmol/L
Human serotonin 5-HT2A = Human serotonin 5-HT2A (Homo sapiens, UniProt P28223); assay: Off-target radioligand binding assay; settings: read-out: Percentage inhibition at 1 μmol/L
Human serotonin 5-HT2B = Human serotonin 5-HT2B (Homo sapiens, UniProt P41595); assay: Off-target radioligand binding assay
Human serotonin 5-HT2C = Human serotonin 5-HT2C (Homo sapiens, UniProt P28335); assay: Off-target radioligand binding assay; settings: read-out: Percentage inhibition at 1 μmol/L
Human serotonin 5-HT3 = Human serotonin 5-HT3 (Homo sapiens, UniProt P46098); assay: Off-target radioligand binding assay; settings: read-out: Percentage inhibition at 1 μmol/L
Human serotonin 5-HT5A = Human serotonin 5-HT5A (Homo sapiens, UniProt P47898); assay: Off-target radioligand binding assay; settings: read-out: Percentage inhibition at 1 μmol/L
Human serotonin 5-HT6 = Human serotonin 5-HT6 (Homo sapiens, UniProt P50406); assay: Off-target radioligand binding assay; settings: read-out: Percentage inhibition at 1 μmol/L
Human serotonin 5-HT7 = Human serotonin 5-HT7 (Homo sapiens, UniProt P34969); assay: Off-target radioligand binding assay
[3] = target: pig catechol-O-methyltransferase (Sus scrofa, UniProt Q99028); assay type: biochemical; settings: read-out: percent inhibition
[4] = target: human monoamine oxidase-A (Homo sapiens, UniProt P21397); assay: Off-target enzyme assay, 14C-labeled substrate; assay type: biochemical; settings: read-out: percent inhibition
[5] = target: human monoamine oxidase -B (Homo sapiens, UniProt P27338); assay: Off-target enzyme assay, 14C-labeled substrate; assay type: biochemical; settings: read-out: percent inhibition
[6] = Pharmacokinetics of DSP-1053 in male rats; assay type: in vivo; settings: Crl:CD(SD), rat, plasma
[7] = system: extracellular 5-HT levels in the rat frontal cortex; assay: Rat microdialysis, extracellular 5-HT; assay type: in vivo; settings: for maximum increase of 5-HT extracellular levels, % of baseline value: 100 min after administration, mean ± SEM
[8] = system: dopamine extracellular levels in the rat frontal cortex; assay: Rat microdialysis, extracellular dopamine; assay type: in vivo; settings: any dose (1, 3, 10 mg kg^−1 p.o.)
rats [9] = assay: Rat forced swimming test; assay type: in vivo; settings: vs vehicle
[10] = system: sham-operated and olfactory bulbectomized rats; assay: Olfactory bulbectomy model, emotional scoring; assay type: in vivo, rat
[11] = system: sham-operated and olfactory bulbectomized rats; assay: Olfactory bulbectomy model, open-field test; assay type: in vivo, rat
Suncus murinus [12] = assay: Evaluation of emesis in Suncus murinus, experiment 1; assay type: in vivo; settings: for Number of animals vomited/tested: single dose, 60 min observation; for Total emetic episode: 1 h observation, animals that vomited
Suncus murinus [13] = settings: 60 mg kg^−1 po, 19 animals per group
rats [14] = assay: Conditioned taste aversion test in rats; settings: 100 mg kg^−1; Day 4, 24 h after administration, vs vehicle
Suncus murinus [15] = settings: ref Mine et al. [2013], cited from earlier work; for Number of animals vomited/tested: single dose
human 5-HT1A receptor = human 5-HT1A receptor (Homo sapiens, UniProt P08908); assay: biochemical; settings: read-out: I.A. (intrinsic activity), GTPγS binding
[16] = read-out: Percentage inhibition at 1 μmol/L
[17] = olfactory bulbectomized animals, 0.3, 1 and 3 mg/kg, 1- and 2-week administration
[18] = sham-operated animals, 0.3, 1 and 3 mg/kg, 1- and 2-week administration
[19] = 1-week administration, vs vehicle
[20] = sham-operated animals, 2-week administration

Chain of Human serotonin 5-HT2B (P41595 whole entry): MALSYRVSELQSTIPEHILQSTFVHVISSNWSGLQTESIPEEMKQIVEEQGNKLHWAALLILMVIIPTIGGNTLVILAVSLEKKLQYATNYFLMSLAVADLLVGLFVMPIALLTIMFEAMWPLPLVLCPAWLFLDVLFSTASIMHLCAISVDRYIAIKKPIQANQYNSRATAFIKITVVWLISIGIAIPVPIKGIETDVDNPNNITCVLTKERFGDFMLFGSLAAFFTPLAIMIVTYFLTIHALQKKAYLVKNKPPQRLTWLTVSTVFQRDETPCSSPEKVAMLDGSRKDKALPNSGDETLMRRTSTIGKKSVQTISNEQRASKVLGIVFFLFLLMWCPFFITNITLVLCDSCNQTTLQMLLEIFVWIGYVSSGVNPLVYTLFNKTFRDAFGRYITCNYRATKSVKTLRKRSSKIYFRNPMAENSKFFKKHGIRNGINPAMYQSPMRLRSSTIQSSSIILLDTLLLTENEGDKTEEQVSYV
Chain of Human serotonin 5-HT7 (P34969 whole entry): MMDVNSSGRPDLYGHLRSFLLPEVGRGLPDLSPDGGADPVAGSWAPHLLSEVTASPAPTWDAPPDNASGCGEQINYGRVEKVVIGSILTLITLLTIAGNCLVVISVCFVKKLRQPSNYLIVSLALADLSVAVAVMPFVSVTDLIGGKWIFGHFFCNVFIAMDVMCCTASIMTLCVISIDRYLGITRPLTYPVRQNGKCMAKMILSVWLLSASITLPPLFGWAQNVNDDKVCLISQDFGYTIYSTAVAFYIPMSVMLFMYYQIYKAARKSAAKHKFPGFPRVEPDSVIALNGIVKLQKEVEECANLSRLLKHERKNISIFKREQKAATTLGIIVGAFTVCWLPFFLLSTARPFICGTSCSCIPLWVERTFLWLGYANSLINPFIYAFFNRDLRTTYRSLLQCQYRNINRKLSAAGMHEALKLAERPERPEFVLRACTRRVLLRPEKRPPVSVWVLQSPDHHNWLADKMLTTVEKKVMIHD
Chain of Human dopamine D3 (P35462 whole entry): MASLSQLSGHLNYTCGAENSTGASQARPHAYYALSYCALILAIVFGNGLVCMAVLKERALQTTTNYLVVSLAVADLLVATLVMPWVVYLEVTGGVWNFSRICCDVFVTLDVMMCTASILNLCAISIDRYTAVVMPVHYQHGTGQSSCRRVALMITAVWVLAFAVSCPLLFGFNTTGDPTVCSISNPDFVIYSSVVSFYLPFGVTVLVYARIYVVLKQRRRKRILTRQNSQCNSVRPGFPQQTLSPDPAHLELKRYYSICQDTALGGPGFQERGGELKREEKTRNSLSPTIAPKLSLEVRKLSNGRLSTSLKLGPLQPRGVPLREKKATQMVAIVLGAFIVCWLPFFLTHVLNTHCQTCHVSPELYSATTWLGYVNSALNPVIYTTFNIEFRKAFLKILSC
Chain of Human adrenergic α1A (P35348 whole entry): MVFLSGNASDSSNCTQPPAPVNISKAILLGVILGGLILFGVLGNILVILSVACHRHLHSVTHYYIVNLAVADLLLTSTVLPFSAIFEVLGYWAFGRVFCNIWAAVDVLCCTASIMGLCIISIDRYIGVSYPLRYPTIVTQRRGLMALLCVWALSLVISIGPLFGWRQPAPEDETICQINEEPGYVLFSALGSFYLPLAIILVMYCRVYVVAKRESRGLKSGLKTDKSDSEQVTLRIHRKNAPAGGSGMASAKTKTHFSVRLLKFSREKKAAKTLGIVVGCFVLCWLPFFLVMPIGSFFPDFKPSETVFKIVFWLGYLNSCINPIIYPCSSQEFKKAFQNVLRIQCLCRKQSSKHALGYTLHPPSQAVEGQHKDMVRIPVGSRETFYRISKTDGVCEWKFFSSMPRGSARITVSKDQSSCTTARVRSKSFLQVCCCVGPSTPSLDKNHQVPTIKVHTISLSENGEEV
Chain of Human histamine H1 (P35367 whole entry): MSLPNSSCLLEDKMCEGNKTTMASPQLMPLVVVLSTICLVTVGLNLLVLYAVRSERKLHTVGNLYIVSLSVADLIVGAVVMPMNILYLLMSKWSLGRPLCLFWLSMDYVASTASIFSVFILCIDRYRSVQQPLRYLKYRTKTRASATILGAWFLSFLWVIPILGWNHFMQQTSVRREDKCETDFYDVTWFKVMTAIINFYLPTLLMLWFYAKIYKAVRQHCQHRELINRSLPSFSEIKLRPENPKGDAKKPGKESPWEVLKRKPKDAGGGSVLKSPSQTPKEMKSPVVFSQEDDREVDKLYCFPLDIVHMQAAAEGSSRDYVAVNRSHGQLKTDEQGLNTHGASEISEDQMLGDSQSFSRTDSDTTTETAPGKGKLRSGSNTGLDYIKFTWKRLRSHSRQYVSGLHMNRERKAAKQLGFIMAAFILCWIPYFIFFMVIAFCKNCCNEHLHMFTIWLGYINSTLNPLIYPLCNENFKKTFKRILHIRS
Chain of Human serotonin 5-HT6 (P50406 whole entry): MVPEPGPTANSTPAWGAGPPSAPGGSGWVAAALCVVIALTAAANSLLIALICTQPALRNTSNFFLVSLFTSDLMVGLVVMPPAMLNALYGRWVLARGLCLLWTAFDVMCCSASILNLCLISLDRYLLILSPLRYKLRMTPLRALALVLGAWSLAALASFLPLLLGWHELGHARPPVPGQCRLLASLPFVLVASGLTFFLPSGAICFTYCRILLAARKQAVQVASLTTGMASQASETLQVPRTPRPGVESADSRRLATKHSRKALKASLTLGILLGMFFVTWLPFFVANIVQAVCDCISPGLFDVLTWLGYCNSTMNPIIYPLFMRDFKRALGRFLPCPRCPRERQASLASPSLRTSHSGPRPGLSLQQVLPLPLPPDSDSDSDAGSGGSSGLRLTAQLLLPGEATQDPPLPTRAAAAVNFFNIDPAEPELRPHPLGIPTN
Chain of Human opiate κ (P41145 whole entry): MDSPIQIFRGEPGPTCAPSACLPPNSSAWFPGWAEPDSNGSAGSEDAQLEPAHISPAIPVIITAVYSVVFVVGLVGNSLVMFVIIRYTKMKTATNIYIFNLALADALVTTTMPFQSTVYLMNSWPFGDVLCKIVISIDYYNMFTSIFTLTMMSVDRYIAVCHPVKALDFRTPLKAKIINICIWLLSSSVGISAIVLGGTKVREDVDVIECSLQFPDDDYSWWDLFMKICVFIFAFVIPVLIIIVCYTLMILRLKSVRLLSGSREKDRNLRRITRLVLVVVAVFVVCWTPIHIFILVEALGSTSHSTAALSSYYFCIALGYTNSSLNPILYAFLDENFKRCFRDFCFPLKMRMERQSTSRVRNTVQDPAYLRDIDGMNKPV
Chain of human 5-HT1A receptor (P08908 whole entry): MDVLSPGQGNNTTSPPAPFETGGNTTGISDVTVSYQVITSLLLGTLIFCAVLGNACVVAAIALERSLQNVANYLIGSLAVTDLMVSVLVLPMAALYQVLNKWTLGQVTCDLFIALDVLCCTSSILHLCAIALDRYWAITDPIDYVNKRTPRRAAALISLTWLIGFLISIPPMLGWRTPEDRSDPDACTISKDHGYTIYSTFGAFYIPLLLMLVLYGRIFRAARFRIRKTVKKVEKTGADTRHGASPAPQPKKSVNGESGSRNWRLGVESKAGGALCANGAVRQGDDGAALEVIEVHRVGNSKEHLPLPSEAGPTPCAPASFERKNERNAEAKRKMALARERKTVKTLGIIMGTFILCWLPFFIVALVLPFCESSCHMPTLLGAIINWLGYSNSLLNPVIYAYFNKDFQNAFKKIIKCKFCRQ
Chain of Human adrenergic β2 (P07550 whole entry): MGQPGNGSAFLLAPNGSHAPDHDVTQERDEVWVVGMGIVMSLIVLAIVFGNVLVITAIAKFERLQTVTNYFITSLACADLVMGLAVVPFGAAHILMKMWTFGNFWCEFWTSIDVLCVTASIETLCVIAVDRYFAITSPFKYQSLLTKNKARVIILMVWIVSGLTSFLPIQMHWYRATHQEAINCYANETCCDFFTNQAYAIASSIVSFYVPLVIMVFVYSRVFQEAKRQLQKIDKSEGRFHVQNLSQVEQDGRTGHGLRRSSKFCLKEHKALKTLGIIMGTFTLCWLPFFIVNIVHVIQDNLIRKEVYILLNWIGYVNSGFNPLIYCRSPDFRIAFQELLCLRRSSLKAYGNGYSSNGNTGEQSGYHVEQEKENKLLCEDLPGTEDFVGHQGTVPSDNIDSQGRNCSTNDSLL
Chain of Human serotonin 5-HT5A (P47898 whole entry): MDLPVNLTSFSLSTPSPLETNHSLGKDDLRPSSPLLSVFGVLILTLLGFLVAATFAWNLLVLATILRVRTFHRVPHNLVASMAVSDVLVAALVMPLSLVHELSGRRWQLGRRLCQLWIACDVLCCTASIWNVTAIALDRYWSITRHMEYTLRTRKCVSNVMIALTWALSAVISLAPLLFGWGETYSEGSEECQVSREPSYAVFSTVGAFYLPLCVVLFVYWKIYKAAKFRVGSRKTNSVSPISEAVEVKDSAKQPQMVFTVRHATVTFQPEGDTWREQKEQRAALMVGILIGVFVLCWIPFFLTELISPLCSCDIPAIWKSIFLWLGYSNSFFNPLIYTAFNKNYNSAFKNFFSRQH
Chain of Human adrenergic β3 (P13945 whole entry): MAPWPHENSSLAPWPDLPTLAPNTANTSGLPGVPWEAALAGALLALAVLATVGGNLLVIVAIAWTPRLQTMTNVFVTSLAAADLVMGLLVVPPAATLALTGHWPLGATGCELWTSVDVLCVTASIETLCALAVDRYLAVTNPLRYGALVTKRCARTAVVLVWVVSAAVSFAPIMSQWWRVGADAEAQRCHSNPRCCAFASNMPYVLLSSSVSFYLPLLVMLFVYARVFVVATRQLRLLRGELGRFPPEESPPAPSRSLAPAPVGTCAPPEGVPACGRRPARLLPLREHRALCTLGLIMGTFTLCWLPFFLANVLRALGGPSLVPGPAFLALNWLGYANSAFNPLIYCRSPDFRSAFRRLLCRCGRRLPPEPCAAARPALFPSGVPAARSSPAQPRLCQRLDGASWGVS
Chain of pig catechol-O-methyltransferase (Q99028 whole entry): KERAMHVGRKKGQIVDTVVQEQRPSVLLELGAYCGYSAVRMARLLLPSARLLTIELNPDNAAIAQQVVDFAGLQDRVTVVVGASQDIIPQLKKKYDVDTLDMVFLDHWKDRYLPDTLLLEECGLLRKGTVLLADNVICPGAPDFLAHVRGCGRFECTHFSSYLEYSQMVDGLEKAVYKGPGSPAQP

Molecule `COCCOc1cc(CC2CCN(CCc3ccc4c(c3)C(=O)CCO4)CC2)ccc1Br.O=S(=O)(O)c1ccccc1` [DSP-1053, 6-(2-{4-[4-Bromo-3-(2-methoxyethoxy)benzyl]piperidin-1-yl}ethyl)-2,3-dihydro-4H-chromen-4-one benzenesulfonate] has a Ki [1] of 0.489 ± 0.039 nM, a Ki (Human adrenergic α1A) of 528 ± 45 nM and an inhibition at 1 µM (Human adrenergic α1A; [16]) of 57%. It also gave an inhibition at 1 µM (Human adrenergic α1B) of 1%, an inhibition at 1 µM (Human adrenergic α2A) of 26% and an inhibition at 1 µM (Human adrenergic α2B) of 6%. The inhibition at 1 µM (Human adrenergic α2C) was 41%, the inhibition at 1 µM (Human adrenergic β1) was 14% and the inhibition at 1 µM (Human adrenergic β2) was 22%. It also gave an inhibition at 1 µM (Human adrenergic β3) of 19%, an inhibition at 1 µM (Human dopamine D1) of 4% and an inhibition at 1 µM (Human dopamine D2L) of 35%. The Ki (Human dopamine D3) was 249 ± 21 nM, the inhibition at 1 µM (Human dopamine D3; [16]) was 65% and the “Percentage inhibition at 1 μmol/L” value (Rat GABAA) was 8%. It also gave a Ki (Human histamine H1) of 7.46 ± 0.2 nM, an inhibition at 1 µM (Human histamine H1; [16]) of 93% and an inhibition at 1 µM (Human histamine H2) of 37%. For the same molecule, the inhibition at 1 µM (Human musucarinic M1) was 9%, the inhibition at 1 µM (Human musucarinic M2) was 21% and the inhibition at 1 µM (Human opiate δ) was 10%. For the same molecule, the inhibition at 1 µM (Human opiate κ) was 0%, the inhibition at 1 µM (Human opiate μ) was 2% and the inhibition at 1 µM [2] was 26%. For the same molecule, the inhibition at 1 µM (Human serotonin 5-HT1B) was 47%, the inhibition at 1 µM (Human serotonin 5-HT2A) was 35% and the Ki (Human serotonin 5-HT2B) was 117 ± 28 nM. For the same molecule, the inhibition at 1 µM (Human serotonin 5-HT2B; [16]) was 79%, the inhibition at 1 µM (Human serotonin 5-HT2C) was 20% and the inhibition at 1 µM (Human serotonin 5-HT3) was 0%. For the same molecule, the inhibition at 1 µM (Human serotonin 5-HT5A) was 2%, the inhibition at 1 µM (Human serotonin 5-HT6) was 14% and the Ki (Human serotonin 5-HT7) was 288 ± 35 nM. For the same molecule, the inhibition at 1 µM (Human serotonin 5-HT7; [16]) was 73%, the inhibition at 1 µM [3] was 0% and the inhibition at 1 µM [4] was 5.28%. For the same molecule, the inhibition at 1 µM [5] was 0.19%, the clearance ([6]; iv, 1 mg/kg) was 57.6 mL/min/kg and the Tmax ([6]; po, 10 mg/kg) was ≤ 1 h. For the same molecule, the “maximum increase of 5-HT extracellular levels, % of baseline value” ([7]; 3 mg kg^−1 p.o.) was 180 ± 25.9%, the “maximum increase of 5-HT extracellular levels, % of baseline value” ([7]; 10 mg kg^−1 p.o.) was 264 ± 58.0% and the “extracellular 5-HT levels” value ([7]; given once at 3 and 10 mg kg^−1) was “dose-dependently increased”. The “dopamine extracellular levels in the rat frontal cortex” value [8] was “did not affect”, the immobility time (rats [9]; 2-week consecutive administration, 1 mg kg^−1 p.o.) was “significantly decreased” and the immobility time (rats [9]; 2-week consecutive administration, 1 mg kg^−1 p.o., listed as DSR-1053) was “significantly reduced”. For the same molecule, the emotional scores [10, 17] was “reduced; also recorded: significant decrease”, the emotional scores [10, 18] was “no effect” and the “number of line crosses” value [11, 17] was “reduced; also recorded: significant decrease”. For the same molecule, the “number of line crosses” value [11, 18] was “no effect”, the “Number of animals vomited/tested” value (Suncus murinus [12]; 10 mg kg^−1 po) was 0 and 0/6 and the “Number of animals vomited/tested” value (Suncus murinus [12]; 30 mg kg^−1 po) was 1 and 1/6. For the same molecule, the Total emetic episode (Suncus murinus [12]; 30 mg kg^−1 po) was 2, the “Number of animals vomited/tested” value (Suncus murinus [12]; 60 mg kg^−1 po) was 3 and 3/6 and the Total emetic episode (Suncus murinus [12]; 60 mg kg^−1 po, mean ± SEM) was 5.3 ± 1.0. The “number of animals that showed emesis on the first day, of 19 animals” value (Suncus murinus [13]) was 9 and the saccharin consumption (rats [14]) was “significantly inhibited”.

With `Fc1ccc([C@@H]2CCNC[C@H]2COc2ccc3c(c2)OCO3)cc1` [Paroxetine, paroxetine hydrochloride, reference compound] the immobility time (rats [9]; 2-week administration) was “no effect”, the immobility time (rats [9]; 3-week administration, 3 and 10 mg kg^−1 p.o.) was “reduced immobility time” and the emotional scores [10, 19] was “did not alter”. For the same molecule, the emotional scores ([10]; olfactory bulbectomized animals, 3 and 10 mg/kg, 2-week administration) was “significant decrease”, the emotional scores [10, 20] was “no effect” and the “number of line crosses” value [11, 19] was “did not alter”. For the same molecule, the “number of line crosses” value ([11]; olfactory bulbectomized animals, 10 mg/kg, 2-week administration) was “significant decrease”, the “number of line crosses” value [11, 20] was “no effect” and the “number of animals that showed emesis on the first day, of 19 animals” value (Suncus murinus [13]) was 12. The “Number of animals vomited/tested” value (Suncus murinus [15]; 10 mg kg^−1 po) was 0/6, the “Number of animals vomited/tested” value (Suncus murinus [15]; 10 mg kg^−1 po, listed as paroxetine) was 0 and the “Number of animals vomited/tested” value (Suncus murinus [15]; 30 mg kg^−1 po) was 2/6. The “Number of animals vomited/tested” value (Suncus murinus [15]; 30 mg kg^−1 po, listed as paroxetine) was 2, the Total emetic episode (Suncus murinus [15]; 30 mg kg^−1 po, 1 h observation, animals that vomited) was 6.8 and the “Number of animals vomited/tested” value (Suncus murinus [15]; 60 mg kg^−1 po) was 6/6 ^*. The “Number of animals vomited/tested” value (Suncus murinus [15]; 60 mg kg^−1 po, listed as paroxetine) was 6.

Molecule `CC(C)NCC(O)COc1cccc2[nH]ccc12` (stereo not shown) [Pindolol, pindolol] has an Emax (human 5-HT1A receptor) of 13.3 ± 3.8%.
